Laboratory results reported in a melting point compilation (Tetko et al.; mined from patent text by program, amines drawn as free bases though some values may be those of a salt).

| SMILES | melting point |
| --- | --- |
| CCCCOCCCn1c(CCCC)nc2c(N)nc3cccnc3c21 | 101 to 102 °C |
| Cc1cscc1NC(=S)Nc1c(N)c(F)c(F)c(F)c1F | 286 to 290 °C |
| COc1ccc(-c2ccc3c(F)c(OC)ccc3c2)cc1 | 150 to 155 °C |
| Cc1cccc(C)c1-n1c(C)nnc1S | 189 to 192 °C |
| CSc1nnc(-c2ccc3occ(-c4ccc(OC(F)(F)F)cc4)c3c2)o1 | 138 to 139 °C |
| COC[C@H](C1CC1)n1cc(Br)nc(Br)c1=O | 98.5 to 100 °C |
| CCOC(=O)C(=O)Nc1ccc2c(c1)-n1cc(C(=O)OC)nc1CO2 | 186 to 188 °C |
| CC(=O)NC[C@H]1CN(c2ccc(N3CCC(n4nnnc4CC(=O)N4CCOCC4)CC3)c(F)c2)C(=O)O1 | 146 to 148 °C |
| Cn1ncc(C(=O)O)c1C(=O)Nc1ccn2nc(Br)nc2c1 | > 250 °C |
| CCOCc1nc2c(N)nc(C)c(C)c2n1NC1CCN(S(C)(=O)=O)CC1 | 127 to 131 °C |
| CC(=O)OC[C@H]1NC(=O)[C@H]1NC(=O)C(=NOC(C)(C)C(=O)OCc1ccc([N+](=O)[O-])cc1)c1csc(NC(=O)CCl)n1 (relative stereo) | 120 to 123 °C |
| Cc1cc(NC(=O)C2=C(O)c3ccsc3S(=O)(=O)C2)no1 | 209 to 210 °C |
| CC(C)(N)C(=O)NCCn1ccc2ncnc(Nc3ccc(Oc4cccc5sncc45)c(Cl)c3)c21 | 198 °C |
| COCC(=O)C1CCC2C3CCC4CC(O)CCC4(C)C3C(=O)CC12C (centres undefined) | 144 to 146 °C |
| CCC1(CC)c2cc(Br)ccc2-c2ccc(C=O)cc21 | 126 to 128 °C |
| CNC(=O)c1cccc(C=O)c1 | 101 to 102 °C |
| N#Cc1cc(Br)c(C(=O)CCl)s1 | 126 to 128 °C |
| CC(=O)Nc1cc(C(F)(F)F)ccc1S(=O)(=O)CC#N | 146 to 147 °C |
| C=CC(=O)NCc1ccc(CCCl)cc1 | 145 to 147 °C |
| C[C@@H](O[Si](C)(C)C(C)(C)C)[C@H]1C(=O)N[C@@H]1[C@@H](C)C(=O)C(C)(C)O[Si](C)(C)C | 162 °C |
| CC(C)(C)C(=O)Nc1nc(Cl)c2ccnc-2[nH]1 | > 210 °C |
| CCCCCCS(=O)(=O)c1nn2c(=O)c([N+](=O)[O-])c(OC)nc2s1 | 150 to 152 °C |

| SMILES | melting point |
| --- | --- |
| Cn1nc(C(F)(F)F)cc1Oc1cc(C#N)cc(OCc2ccc(F)cc2F)n1 | 109 °C |
| CS(=O)(=O)c1ccc(Oc2cc(OC3CCOCC3)c3[nH]c(C4=NCC(CC(N)=O)S4)cc3c2)cn1 (centres undefined) | 136 to 138 °C |
| CN1CC(Cl)CC2c3cccc4[nH]cc(c34)CC21 (centres undefined) | 195 to 197 °C |
| COc1cc2c(cc1OC)C(NCC(=O)O)CC2 (centres undefined) | 213 to 216 °C |
| COc1ccc2c(c1)/C(=C\CNC(=O)NC(C)(C)C)C(C)(C)CC2 | 175 to 176 °C |
| CCC1(c2ccnc(OC)c2CO)OCCCO1 | 79 °C |
| CC(=O)SCC(C(=O)O)C(F)(F)F (centres undefined) | 28 to 30 °C |
| Nc1ncc(-c2ccc(=O)[nH]n2)c(-c2cccs2)n1 | 265 °C |
| Nc1nc(Cl)cc(CCl)n1 | 126 to 128 °C |
| Cc1cc2c(cc1O)C(C)(C)CC1(CC(C)(C)c3cc(OCC(N)=O)c(C)cc3O1)O2 (centres undefined) | 220 to 221 °C |
| COc1ccc2c(c1)c(C=O)cn2CCCCl | 75 to 76 °C |
| Cc1ccc(Cl)cc1NC(=O)OC(C)(C)C | 100 to 102 °C |
| CCCCCCCCCCC1(CCCCCCCCCC)c2cc(-c3cccs3)ccc2-c2ccc(-c3cccs3)cc21 | 59.9 to 60.8 °C |
| Cc1ccc(C(=O)OC(C)c2nc3c(c(=O)n(C)c(=O)n3C)n2C)c(C)n1 (centres undefined) | 160 °C |
| CP1(=O)c2ccccc2CN1c1ccc(Br)cc1 (centres undefined) | 135 to 136 °C |
| CCCCCCCCCCCCNC(=O)n1nc(Oc2ncc(C(F)(F)F)cc2Cl)cc1C | 56 to 57 °C |
| CCCCCCCC(N)=NO | 73 to 75 °C |
| Cc1ccc2c(c1C)OC(C(=O)O)C2 (centres undefined) | 182 °C |
| CCC(C)c1cc(C=O)cc(C(C)CC)c1O (centres undefined) | 65 to 68 °C |
| Cc1nc(N2CCN(Cc3ccc(C(F)(F)F)cc3)C2=O)sc1-c1cnco1 | 160 to 162 °C |
| O=P(Oc1ccccc1)(Oc1ccc(-c2cssc2=S)cc1)Oc1ccc(-c2cssc2=S)cc1 | 75 to 80 °C |
| CCC(C)CC(=O)OC1COC(OC(=O)CC(C)CC)CO1 (centres undefined) | 71 to 72 °C |

| SMILES | melting point |
| --- | --- |
| CC(C)Cn1c(=O)n(C)c(=O)c2c(SCCCO)c(Cc3cccnc3)sc21 | 119 to 121 °C |
| CC(C)Nc1nccc(C#C[Si](C)(C)C)n1 | 93 to 94 °C |
| CN1C(=O)C(NC(=O)Nc2ccc(F)cc2)N=C(c2ccccc2)c2ccccc21 (centres undefined) | 269 to 270 °C |
| Oc1ccc2c(c1)[C@H](O)[C@H](Oc1cccnc1)CO2 (relative stereo) | 194 to 197 °C |
| CN(C)CC1COC2(CCN(c3nc4c(cc3F)C=C(C(=O)O)CN4c3ccc(F)cc3F)C2)O1 (centres undefined) | 154 to 155 °C |
| Cc1cc2c(c(C(C)(C)C)c1)OC(=O)C2Cl (centres undefined) | 81 to 86 °C |
| CN1CC2CC(=O)CC(C1)N2C | 72 to 73 °C |
| CCC(CC)Oc1nn(C)c(=O)c2c1ccn2-c1c(C)cc(C)cc1C | 87 to 88 °C |
| CC1CN(c2ccc(N3CC(CNc4nccs4)OC3=O)cc2F)CCC1=CC#N (centres undefined) | 75 to 77 °C |
| NS(=O)(=O)c1cc(C(=O)CBr)ccc1Cl | 169 °C |
| CC(C)Oc1c(CO)cnc2c(C(F)(F)F)cccc12 | 73 to 74 °C |
| CCOC(=O)c1ccc(C(C)(C)C(N)=O)cc1 | 104 to 109 °C |
| CCS(=O)(=O)c1cc(C(=O)NCC(Cl)CCCCl)c(OC)cc1N (centres undefined) | 109 °C |
| CCCn1c(=O)oc2cc(F)c([N+](=O)[O-])cc21 | 148 to 152 °C |
| CCCCc1nccn1Cc1c(F)cccc1Cl | 106 to 108 °C |
| ClCc1nnc2n1-c1sc(Cl)cc1C(c1ccccc1Cl)=NC2 | 101 to 103 °C |
| CN(C)c1cc2nc(C(C)(C)C)sc2cc1N=C=S | 63 to 66 °C |
| CC1(C)CCc2ncc([N+](=O)[O-])cc2C1 | 99 to 101 °C |
| COc1ccc2c(CNCCCCCCCCCCC(=O)O)cc3cc4c(cc3c2c1)OCO4 | 146 to 148 °C |
| CCCCc1nc(CCC)n[nH]1 | 48.5 to 50 °C |

More lines, now with the values ahead:

| melting point | SMILES |
| --- | --- |
| 198 °C | O=C1CC(c2cccc(-n3cnnc3)c2)=Nc2ccc(-c3ccccc3F)cc2N1 |
| 159 to 161 °C | CN(C)Cc1ccc(-c2cc3onc(-c4ccccc4)c3c(=O)n2C)cc1 |
| 101 to 102 °C | COc1ccccc1NC(=O)Nc1nc(N2CCOCC2)nc(N(CCC(=O)O)Cc2cccc(C)c2)n1 |
| 198 to 199 °C | O=C(NCCc1ccccn1)c1ccc2cc(C(=O)O)[nH]c2c1 |
| 190 to 191 °C | CCC(CC)(CC(=O)Nc1ccc2ccc(OCc3ccc4ccccc4n3)cc2c1)C(=O)O |
| > 275 °C | COC(=O)Nc1nc(-c2ccccc2)c(-c2nc3ccccc3c(=O)n2-c2ccccc2C)s1 |
| > 300 °C | Cn1cc(-c2cc3cccnc3[nH]2)c2cc(C(=O)O)ccc21 |
| 149 to 154 °C | O=C(c1ccccc1)N1CCC2(CC1)Cc1ccccc1C2=O |
| 219 to 220 °C | O=C1NCCN1c1ccc(S(=O)(=O)Nc2ccc3c(c2)OCO3)cc1 |
| 155 °C | CN1CCC(C2(O)c3ccccc3C=Cn3ccnc32)CC1 (centres undefined) |
| 179 to 181 °C | CCC(=O)Nc1ccc(-c2ccncc2)cc1 |
| 137 to 139 °C | Brc1cccc2[nH]cc(Sc3ccccc3)c12 |
| 100 to 101 °C | C=CCNC(=O)N1CC(Oc2ccc(Br)cc2)C1 |
| 160 to 162 °C | Cc1cc(F)ccc1-c1nc(OCCCS(C)(=O)=O)nc2c1ccc(=O)n2-c1c(F)cccc1F |
| 194 to 195 °C | c1ccc2c(c1)nnn2C(n1nnc2ccccc21)n1nnc2ccccc21 |
| 131 to 133 °C | CC(C)(c1ccc2c(=O)c3ccccc3sc2c1)[N+](=O)[O-] |
| 124 to 126 °C | COc1ccc(N2CCN(c3c(C)c(C)c4c(c3C)C(O)(CCc3ccccc3)C(C)(C)O4)CC2)cc1 (centres undefined) |
| 163 to 165 °C | CN(C)S(=O)(=O)c1cccc2c1Sc1ccc(O)cc1N2CCCN1CCC(CCO)CC1 |
| 231 to 232 °C | O=C(NC(C(=O)O)c1ccccc1)c1ccccc1SSc1ccccc1C(=O)NC(C(=O)O)c1ccccc1 (centres undefined) |
| 141 to 153 °C | O=C(c1ccc(Cn2ccc3ccccc32)cc1)N1CCC(N2CCCC2)C1 (centres undefined) |

| melting point | SMILES |
| --- | --- |
| 305 to 308 °C | O=c1[nH]ncc2ccc(/C=C/c3ccc(O)cc3)cc12 |
| 189 to 190 °C | CC(C)Cn1c(=O)[nH]c(=O)c2cc(Cc3cccc4ccccc34)sc21 |
| 137 to 139 °C | C1=CC(Nc2ccccc2)C(=Nc2ccccc2)N1 (centres undefined) |
| 169 to 171 °C | COC(=O)C(=C/c1c(OC)cc(OC)cc1OC)/C(=C\c1ccccc1)C(N)=O |
| 161 to 163 °C | Cn1nc(-c2ccccc2)c(C=Cc2ccccc2C(=O)O)c1Cl |
| 104 to 105 °C | O=C(OCC(CO)(CO)COC(=O)c1ccccc1)c1ccccc1 |
| 81 to 82 °C | O=C1OC(Cc2ccccc2)CN1Cc1ccccc1 (centres undefined) |
| 147 to 148 °C | O=C(O)/C=C\C=C(c1ccccc1F)c1ccccc1F |
| 114 to 115 °C | CCOC(=O)c1cncn1-c1ccc(F)cc1 |
| 192 to 195 °C | Cc1nnc2cnc(-c3ccccc3)cn12 |
| 121 to 122 °C | Cc1ccc(Cl)cc1NC(=S)n1c(C)cc2ccccc21 |
| 147 to 150 °C | CCn1c(-c2ccccc2)c(C2=CCC(C(=O)O)CC2)c2ccccc21 (centres undefined) |
| 135 to 136 °C | O=C(c1cccc([N+](=O)[O-])c1)c1ccc(Oc2ccccc2)c([N+](=O)[O-])c1 |
| 85.6 °C | O=[N+]([O-])c1ccccc1NCc1ccco1 |
| 78 to 79 °C | CCNC(=O)C(C)n1cc(C)c(-c2ccccc2)n1 (centres undefined) |
| 191 °C | CCCCn1ccc(-c2ccc3c(ccn3[C@H]3CC[C@H](O)CC3)c2)c(Cl)c1=O |
| 200 to 202 °C | CC(CO)(CO)NCc1cc2c3ccccc3ccc2c2ccccc12 |
| 126 to 129 °C | CSCC(=O)C(Cc1ccccc1)NC(=O)C(CC(C)C)NC(=O)Cc1cccc2ccccc12 (centres undefined) |
| 186 to 189 °C | O=C1CC2CC[C@@H](CN3C(=O)c4ccccc4C3=O)OC2O1 (some centres undefined) |
| 173 to 175 °C | O=C(O)Cc1nsc(NC(=O)c2ccccc2)n1 |
